Experimental data taken from PubChem BioAssay (NCI).
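A five-concentration, 48-hour dose response in 96-well plates underlies each endpoint, interpolated linearly between surrounding concentrations. GI50 marks 50% less growth. TGI: total growth inhibition.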

Legend:
Assay in all cases: growth of human tumour cells (NCI), 48 h
786-0 renal = test system: 786-0 renal
A498 renal = test system: A498 renal
A549 NSCLC = test system: A549 NSCLC
ACHN renal = test system: ACHN renal
BT-549 breast = test system: BT-549 breast
CAKI-1 renal = test system: CAKI-1 renal
CCRF-CEM leukemia = test system: CCRF-CEM leukemia
COLO 205 colon = test system: COLO 205 colon
DU-145 prostate = test system: DU-145 prostate
EKVX NSCLC = test system: EKVX NSCLC
HCC-2998 colon = test system: HCC-2998 colon
HCT-116 colon = test system: HCT-116 colon
HCT-15 colon = test system: HCT-15 colon
HL-60(TB) leukemia = test system: HL-60(TB) leukemia
HOP-62 NSCLC = test system: HOP-62 NSCLC
HOP-92 NSCLC = test system: HOP-92 NSCLC
HS 578T breast = test system: HS 578T breast
HT29 colon = test system: HT29 colon
IGROV1 ovarian = test system: IGROV1 ovarian
K-562 leukemia = test system: K-562 leukemia
KM12 colon = test system: KM12 colon
LOX IMVI melanoma = test system: LOX IMVI melanoma
M14 melanoma = test system: M14 melanoma
MALME-3M melanoma = test system: MALME-3M melanoma
MCF7 breast = test system: MCF7 breast
MDA-MB-231 breast = test system: MDA-MB-231 breast
MDA-MB-435 = test system: MDA-MB-435
MDA-MB-468 breast = test system: MDA-MB-468 breast
MOLT-4 leukemia = test system: MOLT-4 leukemia
NCI-H226 lung = test system: NCI-H226 lung
NCI-H23 lung = test system: NCI-H23 lung
NCI-H460 lung = test system: NCI-H460 lung
NCI-H522 lung = test system: NCI-H522 lung
NCI/ADR-RES ovarian = test system: NCI/ADR-RES ovarian
OVCAR-3 ovarian = test system: OVCAR-3 ovarian
OVCAR-4 ovarian = test system: OVCAR-4 ovarian
OVCAR-5 ovarian = test system: OVCAR-5 ovarian
OVCAR-8 ovarian = test system: OVCAR-8 ovarian
PC-3 prostate = test system: PC-3 prostate
RPMI-8226 leukemia = test system: RPMI-8226 leukemia
RXF 393 renal = test system: RXF 393 renal
SF-268 CNS = test system: SF-268 CNS
SF-295 CNS = test system: SF-295 CNS
SF-539 CNS = test system: SF-539 CNS
SK-MEL-2 melanoma = test system: SK-MEL-2 melanoma
SK-MEL-28 melanoma = test system: SK-MEL-28 melanoma
SK-MEL-5 melanoma = test system: SK-MEL-5 melanoma
SK-OV-3 ovarian = test system: SK-OV-3 ovarian
SN12C renal = test system: SN12C renal
SNB-19 CNS = test system: SNB-19 CNS
SNB-75 CNS = test system: SNB-75 CNS
SR leukemia = test system: SR leukemia
SW-620 colon = test system: SW-620 colon
T-47D breast = test system: T-47D breast
TK-10 renal = test system: TK-10 renal
U251 CNS = test system: U251 CNS
UACC-257 melanoma = test system: UACC-257 melanoma
UACC-62 melanoma = test system: UACC-62 melanoma
UO-31 renal = test system: UO-31 renal

With O=C(c1ccc(O)cc1)C1[C@H](c2ccc(Cl)cc2)[C@@H](c2ccccc2)NC12C(=O)Nc1ccc(Br)cc12 (stereo partly drawn) the GI50 (786-0 renal) was 1.64 µM, the TGI (786-0 renal) was 3 µM and the GI50 (A498 renal) was 13.8 µM. The TGI (A498 renal) was 27 µM, the GI50 (A549 NSCLC) was 11.8 µM and the TGI (A549 NSCLC) was 25.9 µM. It also gave a GI50 (ACHN renal) of 12.6 µM, a TGI (ACHN renal) of 25.2 µM and a GI50 (BT-549 breast) of 16.3 µM. It also gave a TGI (BT-549 breast) of 30 µM, a GI50 (CAKI-1 renal) of 10.8 µM and a TGI (CAKI-1 renal) of 23.4 µM. For the same molecule, the GI50 (CCRF-CEM leukemia) was 18.9 µM, the TGI (CCRF-CEM leukemia) was 45 µM and the GI50 (COLO 205 colon) was 15.8 µM. It also gave a TGI (COLO 205 colon) of 30 µM, a GI50 (DU-145 prostate) of 16.6 µM and a TGI (DU-145 prostate) of 31.6 µM. It also gave a GI50 (EKVX NSCLC) of 11 µM, a TGI (EKVX NSCLC) of 23.2 µM and a GI50 (HCC-2998 colon) of 14.1 µM. For the same molecule, the TGI (HCC-2998 colon) was 27.3 µM, the GI50 (HCT-116 colon) was 12.6 µM and the TGI (HCT-116 colon) was 25.1 µM. The GI50 (HCT-15 colon) was 13.6 µM, the TGI (HCT-15 colon) was 26.8 µM and the GI50 (HL-60(TB) leukemia) was 20.4 µM. The TGI (HL-60(TB) leukemia) was 46.5 µM, the GI50 (HOP-62 NSCLC) was 13.9 µM and the TGI (HOP-62 NSCLC) was 27.5 µM. For the same molecule, the GI50 (HOP-92 NSCLC) was 14.2 µM, the TGI (HOP-92 NSCLC) was 28.6 µM and the GI50 (HS 578T breast) was 15.2 µM. It also gave a TGI (HS 578T breast) of 38.2 µM, a GI50 (HT29 colon) of 14 µM and a TGI (HT29 colon) of 27.9 µM. The GI50 (IGROV1 ovarian) was 12.1 µM, the TGI (IGROV1 ovarian) was 24.8 µM and the GI50 (K-562 leukemia) was 14.3 µM. It also gave a TGI (K-562 leukemia) of 43.5 µM, a GI50 (KM12 colon) of 13.4 µM and a TGI (KM12 colon) of 29.5 µM. The GI50 (LOX IMVI melanoma) was 14 µM, the TGI (LOX IMVI melanoma) was 27 µM and the GI50 (M14 melanoma) was 12.8 µM. For the same molecule, the TGI (M14 melanoma) was 25.5 µM, the GI50 (MALME-3M melanoma) was 15.1 µM and the TGI (MALME-3M melanoma) was 28.8 µM. It also gave a GI50 (MCF7 breast) of 12.2 µM, a TGI (MCF7 breast) of 25.7 µM and a GI50 (MDA-MB-231 breast) of 13.1 µM. For the same molecule, the TGI (MDA-MB-231 breast) was 26 µM, the GI50 (MDA-MB-435) was 16.2 µM and the TGI (MDA-MB-435) was 31.9 µM. It also gave a GI50 (MDA-MB-468 breast) of 8.82 µM, a TGI (MDA-MB-468 breast) of 21.3 µM and a GI50 (MOLT-4 leukemia) of 11.6 µM. For the same molecule, the TGI (MOLT-4 leukemia) was 32.2 µM, the GI50 (NCI-H226 lung) was 13.6 µM and the TGI (NCI-H226 lung) was 28.9 µM. For the same molecule, the GI50 (NCI-H23 lung) was 15.1 µM, the TGI (NCI-H23 lung) was 29.2 µM and the GI50 (NCI-H460 lung) was 14.7 µM. For the same molecule, the TGI (NCI-H460 lung) was 28.8 µM, the GI50 (NCI-H522 lung) was 13.3 µM and the TGI (NCI-H522 lung) was 26.6 µM. For the same molecule, the GI50 (NCI/ADR-RES ovarian) was 16.6 µM, the TGI (NCI/ADR-RES ovarian) was 31.5 µM and the GI50 (OVCAR-3 ovarian) was 13.8 µM. The TGI (OVCAR-3 ovarian) was 28 µM, the GI50 (OVCAR-4 ovarian) was 14.3 µM and the TGI (OVCAR-4 ovarian) was 28.1 µM. For the same molecule, the GI50 (OVCAR-5 ovarian) was 13.7 µM, the TGI (OVCAR-5 ovarian) was 26.6 µM and the GI50 (OVCAR-8 ovarian) was 15.5 µM. The TGI (OVCAR-8 ovarian) was 30.7 µM, the GI50 (PC-3 prostate) was 12.3 µM and the TGI (PC-3 prostate) was 25.9 µM. It also gave a GI50 (RPMI-8226 leukemia) of 23.6 µM, a TGI (RPMI-8226 leukemia) of 69.2 µM and a GI50 (RXF 393 renal) of 13 µM. The TGI (RXF 393 renal) was 26.3 µM, the GI50 (SF-268 CNS) was 14.4 µM and the TGI (SF-268 CNS) was 31 µM. It also gave a GI50 (SF-295 CNS) of 12.4 µM, a TGI (SF-295 CNS) of 25 µM and a GI50 (SF-539 CNS) of 14.7 µM. For the same molecule, the TGI (SF-539 CNS) was 28 µM, the GI50 (SK-MEL-2 melanoma) was 14.4 µM and the TGI (SK-MEL-2 melanoma) was 28.3 µM. It also gave a GI50 (SK-MEL-28 melanoma) of 16.3 µM, a TGI (SK-MEL-28 melanoma) of 30 µM and a GI50 (SK-MEL-5 melanoma) of 15.7 µM. For the same molecule, the TGI (SK-MEL-5 melanoma) was 29.1 µM, the GI50 (SK-OV-3 ovarian) was 14.9 µM and the TGI (SK-OV-3 ovarian) was 28.3 µM. For the same molecule, the GI50 (SN12C renal) was 14.7 µM, the TGI (SN12C renal) was 28.4 µM and the GI50 (SNB-19 CNS) was 14.6 µM. It also gave a TGI (SNB-19 CNS) of 27.7 µM, a GI50 (SNB-75 CNS) of 10.8 µM and a TGI (SNB-75 CNS) of 26.2 µM. For the same molecule, the GI50 (SR leukemia) was 10.6 µM, the TGI (SR leukemia) was 26.2 µM and the GI50 (SW-620 colon) was 14.4 µM. The TGI (SW-620 colon) was 28.1 µM, the GI50 (T-47D breast) was 11.7 µM and the TGI (T-47D breast) was 24.1 µM. For the same molecule, the GI50 (TK-10 renal) was 13.8 µM, the TGI (TK-10 renal) was 27 µM and the GI50 (U251 CNS) was 15 µM. For the same molecule, the TGI (U251 CNS) was 29.6 µM, the GI50 (UACC-257 melanoma) was 14.8 µM and the TGI (UACC-257 melanoma) was 28.6 µM. For the same molecule, the GI50 (UACC-62 melanoma) was 11.8 µM, the TGI (UACC-62 melanoma) was 24.1 µM and the GI50 (UO-31 renal) was 10.6 µM. For the same molecule, the TGI (UO-31 renal) was 22.4 µM.
